Measurements as given in patent US10172581B2, “Methods of assessing tumor growth” (Dana-Farber Cancer Institute, Inc., priority 2013, dated 2019).
Like-named read-outs stand apart in the source and are kept apart here.

How the values were obtained:
[1] = system: stage IV lung adenocarcinoma; test: CT follow-up of a lung adenocarcinoma patient on crizotinib (FIG. 4); format: in vivo, human; conditions: person, 8 weeks
[2] = system: NSCLC with sensitizing EGFR mutations (dominant measurable lung lesion); conditions: for tumor volume: same patient
Method: Patients provided informed consent and their records were retrospectively reviewed with IRB approval.
Baseline and follow-up CT scans were performed to determine response to EGFR-TKI using the clinical chest CT protocol [31]. Follow-up CT scans were performed every 8 weeks for 33 patients enrolled in prospective trials of EGFR-TKI, and at the discretion of the treating providers for 25 patients treated off protocol [5,25,45-47]. […] The nadir (the smallest tumor volume recorded from baseline to TKI termination/last follow-up) was determined for each patient.
1, 2012, were analyzed. Demographics and disease characteristics were summarized with descriptive statistics. A linear mixed effects model, fitting time as a random effect [48], was fitted to the repeated measures of volume data to estimate the effect of time and other prognostic factors on tumor growth. The tumor volume (mm^3) was transformed to the natural logarithm scale, and the logarithm of tumor volume (logeV) was used. The first model was built adjusting only for time in months from baseline. Since the baseline volume (logeV0; the tumor volume measured on the baseline scan performed before the initiation of TKI therapy) may influence the tumor volume and its growth rate, the second model was adjusted for time and logeV0.

Compound | change of lung lesion on CT [1] | tumor volume at nadir ([2]; person, stage IV lung adenocarcinoma, 4 month of therapy, baseline 25,016 mm^3) | tumor volume ([2]; 5 month, regrowth after nadir) | tumor volume ([2]; 7 month)
C[C@@H](Oc1cc(-c2cnn(C3CCNCC3)c2)cnc1N)c1c(Cl)ccc(F)c1Cl [crizotinib] | marked decrease of the lesion and nodular pericardial thickening |  |  | 
C#Cc1cccc(Nc2ncnc3cc(OCCOC)c(OCCOC)cc23)c1 [erlotinib] |  | 5,288 mm^3 | 7,490 mm^3 | 12,922 mm^3
